The text below walks through data of PMC10926604, “Discovery of a novel small molecule as CD47/SIRPα and PD-1/PD-L1 dual inhibitor for cancer immunotherapy” (Cell Communication and Signaling : CCS, 2024).

“Also recorded” adds a separate entry of the source.

The target of data set [1] is T1, human PD-L1 (hPD-L1) (Homo sapiens, UniProt Q9NZQ7).
T1 construct: PD-L1-IgV-His (human: 10,084-H08H, mouse: 50,010-M08H, Sino Biological); His; purchased Sino Biological 10,084-H08H
Put plainly: MST binding assay, human PD-L1. Particulars: PD-L1-IgV-His, read-out: dissociation constant (KD) for human PD-L1. The procedure: (§1) SIPRα-IgV-His (human: SIA-H5225, mouse: SIA-M52H4, ACRO Biosystems) and PD-L1-IgV-His (human: 10,084-H08H, mouse: 50,010-M08H, Sino Biological) proteins were labeled with Red-NHS647 dye (NT-MO-L001, NanoTemper) for subsequent experiments. SMC18 (C385-0664, ChemDiv) was serially diluted using PBST (from 0.0191 μM to 200 μM) and mixed with the labeled proteins. The samples were then aspirated using standard capillaries and assayed by MST instrument (Monolith NT.115, NanoTemper), and the results were analyzed using the analytical software Monolith NT.115 system to calculate the dissociation constant (KD) values.

The target in data set [2] is T2, murine PD-1/PD-L1 (Mus musculus, UniProt Q9EP73).
T2 construct: purchased Sino Biological 50,010-M02H; host or cells: CHO-K1-mPD-1 cells carry the partner (lentiviral transfection)
Put plainly: Cell-based blocking assay, murine PD-1/PD-L1. Particulars: CHO-K1-mPD-1 cells, PD-L1-Fc, flow cytometry; read-out: IC50 for blocking murine PD-1/PD-L1 interaction. The procedure:
(§2) The CHO-K1 cell line with stable expression of CD47 and PD-1 was constructed previously by our group. SMC18 was serially diluted using PBS 7.2 (containing 1% DMSO) and incubated with 100 ng of SIRPα-Fc protein (human: SIA-H5251, mouse: SIA-M5258, ACRO Biosystems) and 50 ng of PD-L1-Fc protein (human: 10,084-H02H, mouse: 50,010-M02H, Sino Biological) on ice for 30 min. The mixture was then added to the corresponding CHO-K1-CD47 or CHO-K1-PD-1 cells and further incubated on ice for 30 min. Afterward, PE-conjugated anti-human IgG (Fc) antibody (A18272, eBioscience) was added. The mean fluorescence intensity (MFI) of the cells was detected using flow cytometry (BD FACSCalibur) and the blocking efficiency was calculated.

Data set [3] addresses T3, murine SIRPα (mSIRPα) (Mus musculus, UniProt P97797).
T3 construct: SIPRα-IgV-His (human: SIA-H5225, mouse: SIA-M52H4, ACRO Biosystems); His; purchased ACRO Biosystems SIA-M52H4
The data set can be described thus: MST binding assay, murine SIRPα. The conditions noted are these: SIRPα-IgV-His, read-out: dissociation constant (KD) for murine SIRPα. The procedure:
as §1

Data set [4] relates to MC38 tumor-bearing mice. Put plainly: MC38 tumor model, SMC18 combined with radiotherapy. In kind it is in vivo, mouse. The conditions noted are these: one 20 Gy dose local IR + SMC18 2 mg/kg i.p. daily for 14 days. As to the method:
For the combined radiotherapy treatment model, mice were randomly grouped into four groups when the tumor volume reached approximately 40 ~ 60 mm^3. Mice were treated with a single dose of 20 Gy of local tumor irradiation (Precision X-Ray, XRad320) and daily intraperitoneal injections of SMC18 (2 mg/kg) or equivalent amount of saline for 14 days. Tumor volume was measured every other day using the formula V = 1/2 × a × b × c, where a, b, and c are the tumor's length, width, and height, respectively.

In data set [5] the target is T4, human CD47/SIRPα (Homo sapiens, UniProt P78324).
T4 construct: purchased ACRO Biosystems SIA-H5251; host or cells: CHO-K1-hCD47 cells carry the partner (lentiviral transfection)
The data set can be described thus: Cell-based blocking assay, human CD47/SIRPα. Particulars: CHO-K1-hCD47 cells, SIRPα-Fc, flow cytometry; read-out: IC50 for blocking human CD47/SIRPα interaction. The procedure: as §2

Data set [6] is described as follows: Mouse blood indicators and H&E staining of major organs. In kind it is in vivo. The conditions noted are these: for ALT: NS 45.13 ± 1.55; for AST: NS 187.4 ± 25.5. The procedure: Peripheral blood samples were collected from mice that received intravenous injections of SMC18 (2 or 6 mg/kg) for 2 weeks. The samples were analyzed for whole blood hematological test to detect the indicators of anemia and liver injury. For H&E staining analysis, tumors and the major organs (heart, liver, spleen, lung and kidney) were harvested from tumor-bearing mice. The tissues were then fixed with 4.0% paraformaldehyde for paraffin embedding and processed by H&E staining for histological evaluation. Immunostaining of tumor tissue sections was conducted utilizing anti-mouse CD8α andtibody (53–6.7, eBioscience).

Data set [7] concerns the target hTIGIT/hPVR (Homo sapiens, UniProt P15151+Q495A1). The data set can be described thus: Blockade of other immune checkpoint pathways, TIGIT/PVR. It counts as cell-based. The conditions noted are these: Fig. S2.
The subject of data set [8] is B16-OVA cells. Put plainly: MTT assay, B16-OVA cells. In kind it is cell-based, mouse. The conditions noted are these: 100 µM; 24 h, 48 h, 72 h. As to the method:
MC38 and B16-OVA cells were seeded into 96-well plates at a density of 3,000 cells per well, respectively and allowed to adhere overnight. SMC18 was added to the cells and incubated for 24 h, 48 h and 72 h, respectively. Cell viability was measured by adding MTT (3-(4, 5-dimethyl-2-thiazolyl)-2,5-diphenyl-2-H-tetrazolium bromide, 298–93-1, Sigma) solution and incubating for 4 h. The cells were then lysed by shaking with DMSO. The absorbance values at 490 nm were measured using a multi-mode microplate reader (Molecular Devices, SpectraMax iD5).
Fig S3. The Effect of SMC18 on Tumor Cell Proliferation in vitro. MC38 cells (3000 cells/well) and B16-OVA cells (3000 cells/well) were seeded in flat-bottomed 96-well plates and allowed to adhere overnight. Subsequently, the cells were starved for 8 hours in serum-free medium. SMC18 was diluted in complete culture medium and added to the wells, following which the cells were incubated for 24 h, 48 h, and 72 h. After the designated incubation periods, 20 μL of MTT solution was added to each well. Four hours later, the supernatant was aspirated, and 150 μL of DMSO was added to each well to dissolve the MTT formazan product. The plates were then shaken for 10 minutes, and absorbance was measured at 490 nm using a microplate reader.
On the technique in general: Tetrazolium dyes change colour on reduction, which living cells bring about.

For data set [9], the target named is hCD112R/hCD112 (Homo sapiens, UniProt Q6DKI7+Q92692). The data set can be described thus: Blockade of other immune checkpoint pathways, CD112R/CD112. In kind it is cell-based. The conditions noted are these: Fig. S2.
Chain of hCD112R/hCD112 (Q6DKI7 whole entry): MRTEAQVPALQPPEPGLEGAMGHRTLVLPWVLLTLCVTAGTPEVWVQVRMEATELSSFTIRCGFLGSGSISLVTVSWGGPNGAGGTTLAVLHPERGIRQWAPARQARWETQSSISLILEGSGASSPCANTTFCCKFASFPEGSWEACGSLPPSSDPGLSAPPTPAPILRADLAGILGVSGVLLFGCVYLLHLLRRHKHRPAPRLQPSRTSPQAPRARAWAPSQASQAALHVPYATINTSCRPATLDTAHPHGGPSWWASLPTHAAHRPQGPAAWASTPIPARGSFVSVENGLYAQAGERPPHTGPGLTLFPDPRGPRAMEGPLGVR
Chain of hCD112R/hCD112 (Q92692 32-538): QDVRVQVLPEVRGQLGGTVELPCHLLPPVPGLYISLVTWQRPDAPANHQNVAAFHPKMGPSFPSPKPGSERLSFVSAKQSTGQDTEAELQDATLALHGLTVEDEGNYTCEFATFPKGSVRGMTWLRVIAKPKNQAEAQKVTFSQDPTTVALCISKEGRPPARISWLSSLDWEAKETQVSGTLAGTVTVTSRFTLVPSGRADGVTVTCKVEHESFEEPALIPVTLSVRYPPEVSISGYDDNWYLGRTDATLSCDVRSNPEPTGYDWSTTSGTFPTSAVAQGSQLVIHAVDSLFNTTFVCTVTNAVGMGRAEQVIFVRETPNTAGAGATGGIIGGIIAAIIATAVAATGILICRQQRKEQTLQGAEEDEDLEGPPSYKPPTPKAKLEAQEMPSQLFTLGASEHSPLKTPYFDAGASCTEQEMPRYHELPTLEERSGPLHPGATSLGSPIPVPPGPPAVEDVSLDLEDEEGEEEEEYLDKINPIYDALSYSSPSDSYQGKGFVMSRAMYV

Chain of hTIGIT/hPVR (Q495A1 22-244): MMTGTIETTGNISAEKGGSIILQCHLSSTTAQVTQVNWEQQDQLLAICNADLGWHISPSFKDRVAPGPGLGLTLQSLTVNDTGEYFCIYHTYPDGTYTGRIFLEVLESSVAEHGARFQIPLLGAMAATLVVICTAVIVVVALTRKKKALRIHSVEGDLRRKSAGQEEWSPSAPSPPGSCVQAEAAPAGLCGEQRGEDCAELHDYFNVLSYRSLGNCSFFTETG
Chain of hTIGIT/hPVR (P15151 21-417): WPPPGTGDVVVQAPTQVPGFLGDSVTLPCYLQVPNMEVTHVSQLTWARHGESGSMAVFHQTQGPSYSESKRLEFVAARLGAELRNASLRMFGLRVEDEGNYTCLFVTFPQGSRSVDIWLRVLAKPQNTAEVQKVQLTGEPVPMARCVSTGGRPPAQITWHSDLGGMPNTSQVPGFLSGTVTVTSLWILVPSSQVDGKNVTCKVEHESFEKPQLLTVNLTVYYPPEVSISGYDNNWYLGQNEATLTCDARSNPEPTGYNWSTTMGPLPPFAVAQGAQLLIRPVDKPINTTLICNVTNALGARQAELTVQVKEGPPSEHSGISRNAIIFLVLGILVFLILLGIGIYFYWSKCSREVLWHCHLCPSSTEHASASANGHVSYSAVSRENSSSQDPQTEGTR
T3 sequence (P97797 32-137 limits assumed): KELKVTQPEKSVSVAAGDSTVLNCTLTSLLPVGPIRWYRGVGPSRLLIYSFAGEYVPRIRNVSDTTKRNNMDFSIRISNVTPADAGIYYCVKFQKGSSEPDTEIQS
T2 sequence (Q9EP73 19-238 limits assumed): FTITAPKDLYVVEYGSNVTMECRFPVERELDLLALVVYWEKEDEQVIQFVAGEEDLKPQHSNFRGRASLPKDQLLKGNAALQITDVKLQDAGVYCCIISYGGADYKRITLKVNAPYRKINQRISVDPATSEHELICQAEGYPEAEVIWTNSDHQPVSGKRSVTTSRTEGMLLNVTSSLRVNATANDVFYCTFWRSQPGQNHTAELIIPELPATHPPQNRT
T4 sequence (P78324 31-370 limits assumed): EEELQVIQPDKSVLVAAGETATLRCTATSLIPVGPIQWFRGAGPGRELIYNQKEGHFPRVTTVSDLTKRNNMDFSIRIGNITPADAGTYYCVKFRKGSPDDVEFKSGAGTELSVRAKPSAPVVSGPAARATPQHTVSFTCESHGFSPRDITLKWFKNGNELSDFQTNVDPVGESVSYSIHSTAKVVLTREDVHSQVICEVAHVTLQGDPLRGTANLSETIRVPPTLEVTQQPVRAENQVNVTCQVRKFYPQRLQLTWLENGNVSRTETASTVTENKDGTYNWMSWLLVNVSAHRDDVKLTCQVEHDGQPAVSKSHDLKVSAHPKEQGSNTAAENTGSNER
T1 sequence (Q9NZQ7 19-127 limits assumed): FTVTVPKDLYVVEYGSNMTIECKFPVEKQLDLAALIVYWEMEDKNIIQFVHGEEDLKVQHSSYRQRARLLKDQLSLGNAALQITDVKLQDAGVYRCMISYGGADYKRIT

In the case of `Cc1cc(C)cc(NS(=O)(=O)c2ccc3[nH]cc(C(=O)NCCc4ccccc4)c(=O)c3c2)c1` [SMC18], in data set [1], the Kd worked out at 0.029 ± 0.03 µM. The IC50 in [2] was 71.3 ± 20 µM. In [3], the dissociation constant (Kd) was 2.49 ± 1.9 µM. In [4], the “body weight of the mice, combination with radiotherapy” value was “without affecting” and the “tumor growth, combination with radiotherapy” value is reported as “significantly inhibited”. Besides, the IC50 in data set [5] turned out to be 17.8 ± 8.2 µM. Moreover, in [6] (2 mg/kg daily for 14 days), the ALT is recorded as 56.57 ± 13.3 U/L and the AST is recorded as 196.4 ± 20.7 U/L. For the same compound, in [6] (6 mg/kg daily for 14 days), the ALT is 46.83 ± 7.74 U/L and the AST is given as 191.1 ± 23.3 U/L. Further, in [6] (2 or 6 mg/kg daily for 14 days), the “content of alanine aminotransferase (ALT) vs control group” value is listed as “no significant differences”, the “content of aspartate aminotransferase (AST) vs control group” value is “no significant differences”, the “levels of erythrocytes (RBC count) vs control group” value was “No significant differences” and the “levels of hemoglobin vs control group” value is recorded as “No significant differences”. In data set [6] (tumor-bearing mice treated with SMC18), the “H&E staining of major organs (heart, liver, spleen, lung, kidney)” value was “no significant damage”. Moreover, in data set [7], the “inhibitory effect on hTIGIT/hPVR pathway” value is listed as “no blocking effect; also recorded: did not impede”. In addition, the “toxicity towards B16-OVA cells (MTT)” value in data set [8] is on record as “only mild toxicity”. In data set [9], the “inhibitory effect on hCD112R/hCD112 pathway” value is recorded as “no blocking effect; also recorded: did not impede”.

As a reminder, the Kd is the equilibrium constant for the complex coming apart.
